# Tested on: RS4;11 cells
# Assay: RS4;11 cell viability assay (CellTiter Glo);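 further: acute lymphoblastic leukemia line RS4,11, EC50 derived from percentage of viable cells after treatment relative to untreated controls, cell killing taken as a measure of Bcl-2 inhibition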
# Type: cell-based, human
# Settings: Homo sapiens, RS4-11, 48 h, 50,000 cells per well, 10% human serum, 48 hours; read-out: RS4; 11 EC50 Values
# Method: The acute lymphoblastic leukemia (ALL) cell line RS4;11 was used as the primary human cell line to assess the cellular activity of Bcl-2 selective agents in vitro and their efficacy in vivo.
# Cell cytotoxicity EC50 values were assessed using CellTiter Glo (Promega) according to the manufacturer's recommendations. The EC50 values were determined as a percentage of viable cells following treatment compared to the untreated control cells.
row,EC50 [nM],SMILES
1,16.2,"CN1CCC[C@H]1C(=O)N1CCC(COc2ccc(S(=O)(=O)NC(=O)c3ccc(N4CCN(CC5=C(c6ccc(Cl)cc6)CC(C)(C)CC5)CC4)cc3Oc3cnc4[nH]ccc4c3)cc2Cl)CC1 [Example 312, N-[(3-chloro-4-{[1-(1-methyl-L-prolyl)piperidin-4-yl]methoxy}phenyl)sulfonyl]-4-(4-{[2-(4-chlorophenyl)-4,4-dimethylcyclohex-1-en-1-yl]methyl}piperazin-1-yl)-2-(1H-pyrrolo[2,3-b]pyridin-5-yloxy)benzamide]"
2,> 1000,"CC1(C)CCC(CN2CCN(c3ccc(C(=O)NS(=O)(=O)c4cc(F)c(F)c(OCC5(F)CCOCC5)c4)c(Oc4cnc5[nH]ccc5c4)c3)CC2)=C(c2ccc(Cl)cc2)C1 [Example 313, 4-(4-{[2-(4-chlorophenyl)-4,4-dimethylcyclohex-1-en-1-yl]methyl}piperazin-1-yl)-N-({3,4-difluoro-5-[(4-fluorotetrahydro-2H-pyran-4-yl)methoxy]phenyl}sulfonyl)-2-(1H-pyrrolo[2,3-b]pyridin-5-yloxy)benzamide]"
3,660,"CC1(C)CCC(CN2CCN(c3ccc(C(=O)NS(=O)(=O)c4cnc(OC[C@@H]5CN(C6CC6)CCO5)c(Cl)c4)c(Oc4cnc5[nH]ccc5c4)c3)CC2)=C(c2ccc(Cl)cc2)C1 [Example 314, N-[(5-chloro-6-{[(2S)-4-cyclopropylmorpholin-2-yl]methoxy}pyridin-3-yl)sulfonyl]-4-(4-{[2-(4-chlorophenyl)-4,4-dimethylcyclohex-1-en-1-yl]methyl}piperazin-1-yl)-2-(1H-pyrrolo[2,3-b]pyridin-5-yloxy)benzamide]"
4,210,"CC1(C)CCC(CC2CCN(c3ccc(C(=O)NS(=O)(=O)c4ccc(NCC5CCOCC5)c([N+](=O)[O-])c4)c(Oc4cnc5[nH]ccc5c4)c3)CC2)=C(c2ccc(Cl)cc2)C1 [Example 315, 4-(4-{[2-(4-chlorophenyl)-4,4-dimethylcyclohex-1-en-1-yl]methyl}piperidin-1-yl)-N-({3-nitro-4-[(tetrahydro-2H-pyran-4-ylmethyl)amino]phenyl}sulfonyl)-2-(1H-pyrrolo[2,3-b]pyridin-5-yloxy)benzamide]"
5,> 1000,"CC1(C)CCC(CC2CCN(c3ccc(C(=O)NS(=O)(=O)c4ccc(OCC5CCOCC5)c(Cl)c4)c(Oc4cnc5[nH]ccc5c4)c3)CC2)=C(c2ccc(Cl)cc2)C1 [Example 316, 4-(4-{[2-(4-chlorophenyl)-4,4-dimethylcyclohex-1-en-1-yl]methyl}piperidin-1-yl)-N-{[3-chloro-4-(tetrahydro-2H-pyran-4-ylmethoxy)phenyl]sulfonyl}-2-(1H-pyrrolo[2,3-b]pyridin-5-yloxy)benzamide]"
6,13.3,"COC(=O)N1CCOC(CNc2ccc(S(=O)(=O)NC(=O)c3ccc(N4CCN(CC5=C(c6ccc(Cl)cc6)CC(C)(C)CC5)CC4)cc3Oc3cnc4[nH]ccc4c3)cc2[N+](=O)[O-])C1 (stereo not shown) [Example 317, methyl 2-{[(4-{[4-(4-{[2-(4-chlorophenyl)-4,4-dimethylcyclohex-1-en-1-yl]methyl}piperazin-1-yl)-2-(1H-pyrrolo[2,3-b]pyridin-5-yloxy)benzoyl]sulfamoyl}-2-nitrophenyl)amino]methyl}morpholine-4-carboxylate]"
7,11.6,"CCN(C)C(=O)N1CCOC(CNc2ccc(S(=O)(=O)NC(=O)c3ccc(N4CCN(CC5=C(c6ccc(Cl)cc6)CC(C)(C)CC5)CC4)cc3Oc3cnc4[nH]ccc4c3)cc2[N+](=O)[O-])C1 (stereo not shown) [Example 318, 2-{[(4-{[4-(4-{[2-(4-chlorophenyl)-4,4-dimethylcyclohex-1-en-1-yl]methyl}piperazin-1-yl)-2-(1H-pyrrolo[2,3-b]pyridin-5-yloxy)benzoyl]sulfamoyl}-2-nitrophenyl)amino]methyl}-N-ethyl-N-methylmorpholine-4-carboxamide]"
8,4.5,"CC1(C)CCC(CN2CCN(c3ccc(C(=O)NS(=O)(=O)c4ccc(NCC5CN(S(C)(=O)=O)CCO5)c([N+](=O)[O-])c4)c(Oc4cnc5[nH]ccc5c4)c3)CC2)=C(c2ccc(Cl)cc2)C1 (stereo not shown) [Example 319, 4-(4-{[2-(4-chlorophenyl)-4,4-dimethylcyclohex-1-en-1-yl]methyl}piperazin-1-yl)-N-{[4-({[4-(methylsulfonyl)morpholin-2-yl]methyl}amino)-3-nitrophenyl]sulfonyl}-2-(1H-pyrrolo[2,3-b]pyridin-5-yloxy)benzamide]"
9,51,"CC1(C)CCC(CN2CCN(c3ccc(C(=O)NS(=O)(=O)c4ccc(NCCCN(C5CCC5)C5CC5)c([N+](=O)[O-])c4)c(Oc4cnc5[nH]ccc5c4)c3)CC2)=C(c2ccc(Cl)cc2)C1 [Example 320, 4-(4-{[2-(4-chlorophenyl)-4,4-dimethylcyclohex-1-en-1-yl]methyl}piperazin-1-yl)-N-{[4-({3-[cyclobutyl(cyclopropyl)amino]propyl}amino)-3-nitrophenyl]sulfonyl}-2-(1H-pyrrolo[2,3-b]pyridin-5-yloxy)benzamide]"
10,18.8,"O=C(NS(=O)(=O)c1ccc(NCC2CCOCC2)c([N+](=O)[O-])c1)c1ccc(N2CCN(CC3=C(c4ccc(Cl)cc4)CCC(F)(F)C3)CC2)cc1Oc1cnc2[nH]ccc2c1 [Example 321, 4-(4-{[2-(4-chlorophenyl)-5,5-difluorocyclohex-1-en-1-yl]methyl}piperazin-1-yl)-N-({3-nitro-4-[(tetrahydro-2H-pyran-4-ylmethyl)amino]phenyl}sulfonyl)-2-(1H-pyrrolo[2,3-b]pyridin-5-yloxy)benzamide]"
11,12.4,"CC1(C)CCC(CN2CCN(c3ccc(C(=O)NS(=O)(=O)c4ccc(OCC5(F)CCN(C6COC6)CC5)c(Cl)c4)c(Oc4cnc5[nH]ccc5c4)c3)CC2)=C(c2ccc(Cl)cc2)C1 [Example 322, N-[(3-chloro-4-{[4-fluoro-1-(oxetan-3-yl)piperidin-4-yl]methoxy}phenyl)sulfonyl]-4-(4-{[2-(4-chlorophenyl)-4,4-dimethylcyclohex-1-en-1-yl]methyl}piperazin-1-yl)-2-(1H-pyrrolo[2,3-b]pyridin-5-yloxy)benzamide]"
12,717,"CC1(C)CCC(CN2CCN(c3ccc(C(=O)NS(=O)(=O)c4ccc(OCC5CCOC5)c(Cl)c4)c(Oc4cnc5[nH]ccc5c4)c3)CC2)=C(c2ccc(Cl)cc2)C1 (stereo not shown) [Example 323, 4-(4-{[2-(4-chlorophenyl)-4,4-dimethylcyclohex-1-en-1-yl]methyl}piperazin-1-yl)-N-{[3-chloro-4-(tetrahydrofuran-3-ylmethoxy)phenyl]sulfonyl}-2-(1H-pyrrolo[2,3-b]pyridin-5-yloxy)benzamide]"
13,4.53,"O=C(NS(=O)(=O)c1ccc(NC[C@H]2CC[C@H](O)CC2)c([N+](=O)[O-])c1)c1ccc(N2CCN(CC3=C(c4ccc(Cl)cc4)CCC(F)(F)C3)CC2)cc1Oc1cnc2[nH]ccc2c1 [Example 324, 4-(4-{[2-(4-chlorophenyl)-5,5-difluorocyclohex-1-en-1-yl]methyl}piperazin-1-yl)-N-[(4-{[(trans-4-hydroxycyclohexyl)methyl]amino}-3-nitrophenyl)sulfonyl]-2-(1H-pyrrolo[2,3-b]pyridin-5-yloxy)benzamide]"
14,12.3,"O=C(NS(=O)(=O)c1ccc(OCC2(F)CCOCC2)c(Cl)c1)c1ccc(N2CCN(CC3=C(c4ccc(Cl)cc4)CCC4(CCN(C5COC5)CC4)C3)CC2)cc1Oc1cnc2[nH]ccc2c1 [Example 325, N-({3-chloro-4-[(4-fluorotetrahydro-2H-pyran-4-yl)methoxy]phenyl}sulfonyl)-4-(4-{[9-(4-chlorophenyl)-3-(oxetan-3-yl)-3-azaspiro[5.5]undec-8-en-8-yl]methyl}piperazin-1-yl)-2-(1H-pyrrolo[2,3-b]pyridin-5-yloxy)benzamide]"
15,23.1,"CC1(C)CCC(CN2CCN(c3ccc(C(=O)NS(=O)(=O)c4ccc(NC[C@@H]5CN(C6CC6)CCO5)c([N+](=O)[O-])c4)c(Oc4cnc5[nH]ccc5c4)c3)CC2)=C(c2ccc(Cl)cc2)C1 [Example 326, 4-(4-{[2-(4-chlorophenyl)-4,4-dimethylcyclohex-1-en-1-yl]methyl}piperazin-1-yl)-N-{[4-({[(2R)-4-cyclopropylmorpholin-2-yl]methyl}amino)-3-nitrophenyl]sulfonyl}-2-(1H-pyrrolo[2,3-b]pyridin-5-yloxy)benzamide]"
16,2.72,"CC1(C)CCC(CN2CCN(c3ccc(C(=O)NS(=O)(=O)c4ccc(NC[C@H]5CN(C6CC6)CCO5)c([N+](=O)[O-])c4)c(Oc4cnc5[nH]ccc5c4)c3)CC2)=C(c2ccc(Cl)cc2)C1 [Example 327, 4-(4-{[2-(4-chlorophenyl)-4,4-dimethylcyclohex-1-en-1-yl]methyl}piperazin-1-yl)-N-{[4-({[(2S)-4-cyclopropylmorpholin-2-yl]methyl}amino)-3-nitrophenyl]sulfonyl}-2-(1H-pyrrolo[2,3-b]pyridin-5-yloxy)benzamide]"
17,9.88,"O=C(NS(=O)(=O)c1ccc(NCC2CCOCC2)c([N+](=O)[O-])c1)c1ccc(N2CCN(CC3=C(c4ccc(Cl)cc4)CC4(CC3)CC4)CC2)cc1Oc1cnc2[nH]ccc2c1 [Example 328, 4-(4-{[5-(4-chlorophenyl)spiro[2.5]oct-5-en-6-yl]methyl}piperazin-1-yl)-N-({3-nitro-4-[(tetrahydro-2H-pyran-4-ylmethyl)amino]phenyl}sulfonyl)-2-(1H-pyrrolo[2,3-b]pyridin-5-yloxy)benzamide]"
18,424,"CC1(C)CCC(CN2CCN(c3ccc(C(=O)NS(=O)(=O)c4cnc(OCC5CCC(N(C6CC6)C6COC6)CC5)c(Cl)c4)c(Oc4cnc5[nH]ccc5c4)c3)CC2)=C(c2ccc(Cl)cc2)C1 (stereo not shown) [Example 329, N-{[5-chloro-6-({4-[cyclopropyl(oxetan-3-yl)amino]cyclohexyl}methoxy)pyridin-3-yl]sulfonyl}-4-(4-{[2-(4-chlorophenyl)-4,4-dimethylcyclohex-1-en-1-yl]methyl}piperazin-1-yl)-2-(1H-pyrrolo[2,3-b]pyridin-5-yloxy)benzamide]"
19,9.78,"O=C(NS(=O)(=O)c1ccc(NCC2CN(C3CC3)CCO2)c([N+](=O)[O-])c1)c1ccc(N2CCN(CC3=C(c4ccc(Cl)cc4)CC4(CC3)CC4)CC2)cc1Oc1cnc2[nH]ccc2c1 (stereo not shown) [Example 330, 4-(4-{[5-(4-chlorophenyl)spiro[2.5]oct-5-en-6-yl]methyl}piperazin-1-yl)-N-[(4-{[(4-cyclopropylmorpholin-2-yl)methyl]amino}-3-nitrophenyl)sulfonyl]-2-(1H-pyrrolo[2,3-b]pyridin-5-yloxy)benzamide]"

# Source: patent US20240043404A1 (AbbVie Inc., priority 2009, published 2024)
